Assay results as given in US11028084B2, “Selective inhibitors of gentotoxic steress-induced IKK/NF-κB pathways” (Max-Delbrück-Centrum für Molekulare Medizin in der …, priority 2016, dated 2021).

Legend:
[1] = tested on: IKKγ phosphorylation at S85; assay: IKKγ S85 phosphorylation after irradiation, WB, HEK293 cells; assay type: cell-based; settings: HEK293 (human)
Protocol: FIG. 11: (A) HEK293 cells were pre-incubated with DMSO, MW01 or ATM inhibitor KU55933 and irradiated. Lysates were subjected to SDS-PAGE/WB. The specific IKKγ S85 band (lower band) was identified by induction following irradiation and by sensitivity to ATMi and λ-phosphatase (λ-PP) treatment. The asterisk indicates a non-specific band that was neither inducible nor ATMi sensitive. (B) Experiment was done as shown in (A) using MEF cells. (C) HEK293 cells were pre-treated with DMSO or MW01, irradiated and lysed. Lysates were used to immunoprecipitate IKKγ using an IKKγ antibody.

[2] = tested on: p65 S536 phosphorylation; assay: p65 S536 phosphorylation after γ-IR or etoposide, SDS-PAGE/WB, U2OS cells; assay type: cell-based, human; settings: γ-IR
Protocol: FIG. 3: (A) U2OS cells were pre-treated with increasing concentrations of MW01 in duplicates in a 384 well plate. Then, cells were treated with etoposide, fixed and subjected to IF of p65. Spatial measurement of p65 cytosolic and nuclear localisation was used for calculation of p65 translocation rates. (B) U2OS cells were pre-treated with DMSO, MW01 and irradiated with γ-IR. After 90 min cells were lysed and subjected to SDS-PAGE/WB and EMSA. (C) Cells were pre-treated with different concentrations of MW01 as indicated, treated with γ-IR (C) or etoposide (D) and subjected to WB or EMSA, respectively. LDH in (C) represents the loading control.
FIG. 14: (A) U2OS cells were pre-treated with different concentrations of olaparib prior to co-treatment with etoposide. Whole cell lysis was performed after 90 min and cleared lysates were used for WB with indicated antibodies. (B) U2OS cells were pre-treated with DMSO, olaparib or the ATM inhibitor Ku55933 and co-treated with etoposide. Cells were harvested after 45 min and subjected to SDS-PAGE/WB. Membranes were stained with the indicated antibodies. The experiment of (B) was performed simultaneously to the experiments of (A) and (E) to control functionality of olaparib in inhibiting PAR chain formation. (C) Densitometrical analyses of (A) and two further independent experiments done as shown in (A). (D) U2OS cells were pre-treated with the substances as indicated prior to irradiation. After 90 min mRNA was isolated, transcribed into cDNA and was used for expression analyses of the indicated genes using quantitative real-time PCR (qRT-PCR). (E) HepG2 cells were pre-treated with the PARP inhibitors olaparib, 3-AB and EB-47 prior to γ-irradiation. […]
After transfer of proteins on PVDF membranes unspecific binding of antibodies was blocked by incubation of membranes in 5% skim milk powder in TBST buffer (or 3% BSA in TBST for phosphorylation-specific antibodies) for 1 h at RT. […] After three times of washing with TBST and once with PBS for 5 min, chemiluminescent photon emission was detected using a CCD camera system (Fusion Solo). […]

[3] = target: T1, nuclear IKKγ-PIASy-PARP1-ATM signalosome (Mus musculus, UniProt O88522+P11103+Q62388+Q9JM05); assay: Nuclear PARP1-signalosome formation, IKKγ co-immunoprecipitation, MEF cells; assay type: cell-based; settings: irradiation
T1 construct: endogenous in cells; host or cells: MEF (mouse embryonic fibroblasts)
Protocol: FIG. 8: (A) HepG2 cells were pre-treated with DMSO or MW01 and irradiated. Nuclear cell extracts (NE) were used for PIASy immunoprecipitation (IP). Western blot membranes were incubated with indicated antibodies. (B) Experiment as shown in (A), but with IKKγ IP. (C) Experiment as shown in (B), but done in HEK293 cells. (D) Experiment done as shown in […], but repeated in MEF cells.
Following cell lysis the protein concentration of samples was determined. For input controls, 40 μg lysate were mixed with 6×SDS-buffer and denatured by heating to 95° C. for 4 min. Approximately 1500 μg protein lysate was used for pulldown and samples volumes were equalled with lysis buffer. Lysates were precleared with 30 μl sepharose A or sepharose G beads (depending on the antibody type used for pulldown) for 30 min, and centrifuged for 5 min at 1,500×g. The supernatant was transferred to a new reaction tube. Primary antibody (2-2.5 μg) was added to the cleared lysate for immunoprecipitation overnight while rotating at 4° C. The next day 30 μl sepharose beads per sample were used for immobilisation of antibodies. Following 4 washes with IP wash buffer precipitated proteins were eluted by mixing with 3×SDS-buffer and heating to 95° C. for 4 min.

[4] = tested on: NF-κB target genes NFKBIA, TNFAIP3, CXCL8; assay: qRT-PCR of NF-κB target genes after irradiation, U2OS cells; assay type: cell-based, human; settings: 90 min after irradiation
Protocol: FIG. 14: (A) U2OS cells were pre-treated with different concentrations of olaparib prior to co-treatment with etoposide. Whole cell lysis was performed after 90 min and cleared lysates were used for WB with indicated antibodies. (B) U2OS cells were pre-treated with DMSO, olaparib or the ATM inhibitor Ku55933 and co-treated with etoposide. Cells were harvested after 45 min and subjected to SDS-PAGE/WB. Membranes were stained with the indicated antibodies. The experiment of (B) was performed simultaneously to the experiments of (A) and (E) to control functionality of olaparib in inhibiting PAR chain formation. (C) Densitometrical analyses of (A) and two further independent experiments done as shown in (A). (D) U2OS cells were pre-treated with the substances as indicated prior to irradiation. After 90 min mRNA was isolated, transcribed into cDNA and was used for expression analyses of the indicated genes using quantitative real-time PCR (qRT-PCR). (E) HepG2 cells were pre-treated with the PARP inhibitors olaparib, 3-AB and EB-47 prior to γ-irradiation. Cells were harvested after 15 and 90 min and subjected to SDS-PAGE/WB. Membranes were stained with the indicated antibodies. Error bars equal SEM.
To quantitate specific mRNA (messenger RNA) species in samples RNA was isolated, RNA concentration was measured and mRNA was transcribed into cDNA. The amount of mRNA transcripts of certain genes within a sample was quantified by employing gene specific primers and using a C-1000 Thermal cycler (Biorad). The expression of genes of interest was normalised against two or three reference genes (HRPT1, RPL_13a and B2M) using the CFX manager software. The fold induction of mRNA was calculated over untreated sample levels by the ΔΔ-Ct method.

T1 sequence (O88522 whole entry): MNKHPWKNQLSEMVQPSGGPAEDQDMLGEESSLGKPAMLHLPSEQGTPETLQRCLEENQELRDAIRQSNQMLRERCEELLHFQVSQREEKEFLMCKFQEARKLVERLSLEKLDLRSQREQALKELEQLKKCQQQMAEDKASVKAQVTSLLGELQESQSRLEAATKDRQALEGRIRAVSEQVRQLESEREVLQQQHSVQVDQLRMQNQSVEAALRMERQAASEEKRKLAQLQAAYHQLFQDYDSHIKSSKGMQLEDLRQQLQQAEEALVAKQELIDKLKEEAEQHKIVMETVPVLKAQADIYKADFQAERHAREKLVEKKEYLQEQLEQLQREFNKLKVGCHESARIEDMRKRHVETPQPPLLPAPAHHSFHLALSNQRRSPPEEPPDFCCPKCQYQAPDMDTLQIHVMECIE
T1 sequence (Q9JM05 2-507 limits assumed): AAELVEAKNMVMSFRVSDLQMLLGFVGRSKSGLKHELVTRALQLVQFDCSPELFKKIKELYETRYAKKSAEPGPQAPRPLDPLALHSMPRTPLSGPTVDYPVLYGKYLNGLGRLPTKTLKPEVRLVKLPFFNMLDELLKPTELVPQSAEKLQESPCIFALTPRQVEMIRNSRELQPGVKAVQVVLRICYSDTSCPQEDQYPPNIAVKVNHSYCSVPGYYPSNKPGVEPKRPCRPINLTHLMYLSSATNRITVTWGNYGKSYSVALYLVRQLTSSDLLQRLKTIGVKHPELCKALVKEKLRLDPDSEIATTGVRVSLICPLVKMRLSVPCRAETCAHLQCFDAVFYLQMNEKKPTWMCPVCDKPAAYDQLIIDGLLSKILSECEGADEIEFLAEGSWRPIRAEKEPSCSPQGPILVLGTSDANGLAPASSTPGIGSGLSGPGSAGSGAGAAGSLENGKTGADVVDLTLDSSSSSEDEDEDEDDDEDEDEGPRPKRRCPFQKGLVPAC
T1 sequence (P11103 2-1013 limits assumed): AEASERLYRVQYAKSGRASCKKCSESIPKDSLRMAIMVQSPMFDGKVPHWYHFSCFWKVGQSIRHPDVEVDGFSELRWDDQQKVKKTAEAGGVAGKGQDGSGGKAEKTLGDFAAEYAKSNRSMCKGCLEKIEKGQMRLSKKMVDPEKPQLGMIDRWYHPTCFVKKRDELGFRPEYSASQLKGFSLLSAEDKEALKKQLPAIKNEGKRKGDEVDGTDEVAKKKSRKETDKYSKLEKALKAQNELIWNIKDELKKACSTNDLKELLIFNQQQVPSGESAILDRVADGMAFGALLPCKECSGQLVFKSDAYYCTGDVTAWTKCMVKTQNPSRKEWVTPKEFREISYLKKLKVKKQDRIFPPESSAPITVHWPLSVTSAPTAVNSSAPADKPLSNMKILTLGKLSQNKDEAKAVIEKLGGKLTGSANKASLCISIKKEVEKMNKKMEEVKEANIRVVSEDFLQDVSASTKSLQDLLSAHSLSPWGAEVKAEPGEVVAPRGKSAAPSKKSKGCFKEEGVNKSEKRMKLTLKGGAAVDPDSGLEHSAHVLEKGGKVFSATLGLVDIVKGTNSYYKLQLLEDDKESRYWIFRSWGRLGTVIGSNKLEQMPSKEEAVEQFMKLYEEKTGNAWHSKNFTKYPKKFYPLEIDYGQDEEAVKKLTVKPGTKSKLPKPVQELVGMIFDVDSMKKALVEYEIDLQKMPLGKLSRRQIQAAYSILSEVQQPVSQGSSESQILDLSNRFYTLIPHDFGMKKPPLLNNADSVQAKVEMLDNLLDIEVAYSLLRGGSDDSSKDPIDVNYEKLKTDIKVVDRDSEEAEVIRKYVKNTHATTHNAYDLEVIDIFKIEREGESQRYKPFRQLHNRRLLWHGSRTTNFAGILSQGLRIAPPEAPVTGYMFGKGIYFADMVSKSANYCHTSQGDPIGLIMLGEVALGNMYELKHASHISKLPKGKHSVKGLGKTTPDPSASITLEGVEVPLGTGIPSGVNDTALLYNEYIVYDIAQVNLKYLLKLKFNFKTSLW
T1 sequence (Q62388 2-3066 limits assumed): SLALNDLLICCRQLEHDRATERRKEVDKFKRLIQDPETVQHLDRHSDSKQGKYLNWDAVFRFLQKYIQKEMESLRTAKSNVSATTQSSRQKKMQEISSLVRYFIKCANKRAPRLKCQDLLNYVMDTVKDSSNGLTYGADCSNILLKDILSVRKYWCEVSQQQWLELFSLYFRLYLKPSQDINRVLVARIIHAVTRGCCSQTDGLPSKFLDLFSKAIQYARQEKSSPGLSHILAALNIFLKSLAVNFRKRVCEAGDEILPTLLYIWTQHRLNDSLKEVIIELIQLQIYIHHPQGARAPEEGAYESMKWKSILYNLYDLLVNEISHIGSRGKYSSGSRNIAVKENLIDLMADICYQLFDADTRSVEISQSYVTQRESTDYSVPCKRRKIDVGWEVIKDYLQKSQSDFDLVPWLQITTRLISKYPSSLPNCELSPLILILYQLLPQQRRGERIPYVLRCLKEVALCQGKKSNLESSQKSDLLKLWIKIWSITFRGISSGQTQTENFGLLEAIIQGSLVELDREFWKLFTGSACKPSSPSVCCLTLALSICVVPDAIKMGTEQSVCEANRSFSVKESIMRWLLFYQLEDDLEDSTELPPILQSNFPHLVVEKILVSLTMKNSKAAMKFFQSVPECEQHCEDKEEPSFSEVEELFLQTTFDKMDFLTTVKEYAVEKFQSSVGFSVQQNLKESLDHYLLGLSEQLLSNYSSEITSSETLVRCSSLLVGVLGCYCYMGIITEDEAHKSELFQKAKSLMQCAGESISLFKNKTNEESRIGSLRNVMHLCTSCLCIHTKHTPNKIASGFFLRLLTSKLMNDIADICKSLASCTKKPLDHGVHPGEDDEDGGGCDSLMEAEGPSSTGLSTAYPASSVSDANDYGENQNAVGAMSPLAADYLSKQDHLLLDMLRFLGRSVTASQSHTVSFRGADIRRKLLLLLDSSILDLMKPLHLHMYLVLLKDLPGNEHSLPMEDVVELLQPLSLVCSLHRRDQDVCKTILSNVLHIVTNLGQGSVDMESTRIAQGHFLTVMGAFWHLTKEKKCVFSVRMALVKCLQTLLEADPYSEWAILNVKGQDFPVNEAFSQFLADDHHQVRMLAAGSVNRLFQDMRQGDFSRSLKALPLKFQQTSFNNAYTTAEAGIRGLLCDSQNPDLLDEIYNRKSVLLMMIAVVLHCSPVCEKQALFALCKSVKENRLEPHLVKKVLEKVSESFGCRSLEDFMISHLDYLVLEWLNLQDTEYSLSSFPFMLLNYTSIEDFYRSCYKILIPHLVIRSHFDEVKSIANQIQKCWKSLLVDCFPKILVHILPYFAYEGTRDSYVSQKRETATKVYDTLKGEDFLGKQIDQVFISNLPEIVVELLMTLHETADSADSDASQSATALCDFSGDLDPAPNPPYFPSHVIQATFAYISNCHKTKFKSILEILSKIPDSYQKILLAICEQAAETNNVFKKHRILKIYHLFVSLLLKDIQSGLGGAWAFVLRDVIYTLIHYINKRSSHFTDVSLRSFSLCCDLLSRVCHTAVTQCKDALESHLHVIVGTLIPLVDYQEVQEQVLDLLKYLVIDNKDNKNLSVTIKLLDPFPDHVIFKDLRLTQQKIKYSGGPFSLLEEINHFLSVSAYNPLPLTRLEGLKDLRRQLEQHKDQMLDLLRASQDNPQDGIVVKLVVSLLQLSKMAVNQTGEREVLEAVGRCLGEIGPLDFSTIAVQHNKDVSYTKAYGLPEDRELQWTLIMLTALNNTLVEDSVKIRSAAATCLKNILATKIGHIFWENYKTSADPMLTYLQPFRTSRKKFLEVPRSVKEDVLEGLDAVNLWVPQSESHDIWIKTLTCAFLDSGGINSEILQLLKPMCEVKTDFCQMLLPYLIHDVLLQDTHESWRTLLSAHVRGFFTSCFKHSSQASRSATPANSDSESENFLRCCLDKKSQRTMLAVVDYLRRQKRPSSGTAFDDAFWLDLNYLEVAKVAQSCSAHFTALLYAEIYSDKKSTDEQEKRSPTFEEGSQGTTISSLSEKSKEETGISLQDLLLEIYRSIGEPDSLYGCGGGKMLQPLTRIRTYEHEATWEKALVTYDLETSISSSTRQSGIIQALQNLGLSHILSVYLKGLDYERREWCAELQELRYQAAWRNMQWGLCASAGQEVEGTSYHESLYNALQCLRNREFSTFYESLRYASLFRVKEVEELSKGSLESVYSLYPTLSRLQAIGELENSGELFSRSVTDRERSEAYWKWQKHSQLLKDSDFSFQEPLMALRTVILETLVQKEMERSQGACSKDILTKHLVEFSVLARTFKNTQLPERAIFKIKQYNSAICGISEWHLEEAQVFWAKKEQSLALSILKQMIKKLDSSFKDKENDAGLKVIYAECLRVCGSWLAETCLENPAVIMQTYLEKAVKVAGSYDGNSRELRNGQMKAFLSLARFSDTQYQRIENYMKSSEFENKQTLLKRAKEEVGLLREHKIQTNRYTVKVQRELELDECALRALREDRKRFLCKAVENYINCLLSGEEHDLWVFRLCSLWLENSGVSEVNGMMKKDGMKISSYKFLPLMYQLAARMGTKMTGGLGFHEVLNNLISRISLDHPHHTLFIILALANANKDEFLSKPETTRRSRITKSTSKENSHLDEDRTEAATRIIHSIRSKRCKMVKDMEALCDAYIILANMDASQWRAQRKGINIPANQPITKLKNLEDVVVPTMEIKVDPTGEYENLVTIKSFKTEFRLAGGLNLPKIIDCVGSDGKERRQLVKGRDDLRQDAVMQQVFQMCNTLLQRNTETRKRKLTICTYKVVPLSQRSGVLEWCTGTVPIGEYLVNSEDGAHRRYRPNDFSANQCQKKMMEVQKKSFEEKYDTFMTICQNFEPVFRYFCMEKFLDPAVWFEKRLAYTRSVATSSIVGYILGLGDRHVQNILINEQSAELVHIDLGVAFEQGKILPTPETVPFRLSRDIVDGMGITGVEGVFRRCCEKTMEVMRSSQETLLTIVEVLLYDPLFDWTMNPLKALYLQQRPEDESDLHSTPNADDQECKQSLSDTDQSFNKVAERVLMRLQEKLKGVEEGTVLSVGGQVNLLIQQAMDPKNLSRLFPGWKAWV

For `COc1ccc2c(c1OC)c(=O)n1c3ccc(O)cc3c3ccnc2c31` [MW01, 12-hydroxy-6,7-dimethoxy-8H-benzo[c]indolo[3,2,1-ij][1,5]naphthyridin-8-one], the “phosphorylation of IKKγ at S85” value [1] was “abolished”, the “p65 S536 phosphorylation following γ-IR” value [2] was “concentration dependent inhibition of p65 S536 phosphorylation” and the “interaction of IKKγ with PARP1, p-ATM S1981 or PIASy” value [3] was “abrogation of the interaction”. For the same compound, the “NFKBIA, TNFAIP3 and CXCL8 mRNA induction upon irradiation” value [4] was “complete inhibition”.
